Biological target: Human Dopamine Transporter (DAT) (Homo sapiens, UniProt Q01959)
Assay: Human Dopamine Transporter (DAT) Binding (Antagonist Radioligand) Assay
Conditions: for % of Control Specific Binding (1st Test) / % of Control Specific Binding (2nd Test) / % Inhibition of Control Specific Binding / % of Control Specific Binding (mean of two tests): [3H]BTCP 4 nM radioligand; for % Inhibition of Control Specific Binding: cell membrane homogenates, 120 min at 4° C., test concentration not given; for level of inhibition in the dopamine transporter inhibitory assay (in words): qualitative statement in the description
Method: Human Dopamine Transporter (DAT) Binding (Antagonist Radioligand) Assay
Nonspecific binding is determined in the presence of 10 μM BTCP. Following incubation, the samples are filtered rapidly under vacuum through glass fiber filters (GF/B, Packard) presoaked with 0.3% PEI and rinsed several times with ice-cold 50 mM Tris-HCl using a 96-sample cell harvester (Unifilter, Packard). The filters are dried then counted for radioactivity in a scintillation counter (Topcount, Packard) using a scintillation cocktail (Microscint 0, Packard). The results are expressed as a percent inhibition of the control radioligand specific binding.

Chain of Human Dopamine Transporter (DAT) (Q01959 whole entry): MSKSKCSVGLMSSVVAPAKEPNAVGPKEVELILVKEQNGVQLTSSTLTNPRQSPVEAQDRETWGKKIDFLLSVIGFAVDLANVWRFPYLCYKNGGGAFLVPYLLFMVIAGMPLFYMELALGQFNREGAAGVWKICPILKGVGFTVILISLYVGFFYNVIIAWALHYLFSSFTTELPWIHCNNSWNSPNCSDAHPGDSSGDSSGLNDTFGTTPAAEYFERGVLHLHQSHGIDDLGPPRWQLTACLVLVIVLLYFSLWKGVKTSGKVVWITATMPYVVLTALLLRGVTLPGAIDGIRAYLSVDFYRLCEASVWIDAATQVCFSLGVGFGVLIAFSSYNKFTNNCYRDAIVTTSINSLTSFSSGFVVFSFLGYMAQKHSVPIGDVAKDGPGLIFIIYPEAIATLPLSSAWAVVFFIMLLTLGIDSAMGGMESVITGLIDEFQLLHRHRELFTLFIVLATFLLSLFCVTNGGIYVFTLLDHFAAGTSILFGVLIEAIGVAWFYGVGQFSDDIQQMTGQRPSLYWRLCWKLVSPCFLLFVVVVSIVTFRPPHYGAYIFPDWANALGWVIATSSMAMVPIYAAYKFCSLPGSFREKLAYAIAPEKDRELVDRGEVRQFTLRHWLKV

% of Control Specific Binding (1st Test)	% of Control Specific Binding (2nd Test)	% Inhibition of Control Specific Binding	% of Control Specific Binding (mean of two tests)	level of inhibition in the dopamine transporter inhibitory assay (in words)	Compound
4.2%	5%	95%	4.6%	extremely high level of inhibition	OC[C@@H](O)[C@@H](/C=C/c1ccc(O)cc1)c1ccc(O)cc1 [Agatharesinol, (2S,3S,4E)-3,5-bis(4-hydroxyphenyl)pent-4-ene-1,2-diol]
7.4%	5.6%	94%	6.5%	extremely high level of inhibition	OC[C@@H](O)[C@@H](/C=C/c1ccc(O)cc1)c1ccc(O)c(O)c1 [Sequirin C, 4-[(1S,2E)-1-[(1S)-1,2-dihydroxyethyl]-3-(4-hydroxyphenyl)prop-2-en-1-yl]benzene-1,2-diol]

Compound	% of Control Specific Binding (1st Test)	% of Control Specific Binding (2nd Test)	% Inhibition of Control Specific Binding	% of Control Specific Binding (mean of two tests)	level of inhibition in the dopamine transporter inhibitory assay (in words)
CC(C)=CCc1c(C2CCc3ccc(O)cc3O2)ccc(O)c1O (stereo in doubt) [Kazinol U, 4-[(2S)-7-hydroxy-3,4-dihydro-2H-chromen-2-yl]-3-(3-methylbut-2-enyl) benzene-1,2-diol]	33.6%	42.8%	62%	38.2%	high level of inhibition
